Entries after “also recorded” stand apart in the source; their conditions may differ.

Test [1] relates to C57/BL6 mice with LAD ligation (CHF). Put plainly: Myocardial infarction LAD mouse model (CHF, HFrEF). It is filed as in vivo. The note with it: 0.1% compound in chow. How it is done:
A myocardial infarction mouse model suffering from a heart failure with reduced ejection fraction (HFrEF) was generated by ligating the left anterior […] coronary artery (LAD) as described below to induce an acute myocardial infarction (MI) followed by the development of a chronic (systolic) heart failure (CHF).
A small animal surgery was carried out on C57/BL6 mice at 12 weeks of age in the Leipzig Heart Center following established and well known procedures in the field (see for example Bowen et al., J Appl Physiol, 2015, 118, 11-19; Mangner et al., J Cachexia Sarcopenia Muscle, 2015, 6, 381-390). Briefly, mice from the LAD group were anesthetized by i.p. injection of MMF; Medetomidin (0.5 mg/kg body weight), Midazolam (5.0 mg/kg body weight), Fentanyl (0.05 mg/kg body weight). Unconscious mice were fixed on an operation table. Ventral parts of the thorax were shaved, washed and sterilized. Unconscious mice were then intubated and ventilated with normal room air, using an animal respirator (TSE GmbH, Siemensstr. 21, 61352 Bad Homburg; product: http://tinateb.com/wp-content/uploads/2016/06/TSE_Respirator-Compact_20080724_HR.pdf). For LAD operation, the thorax was opened about 1 cm above the Processus xiphoideus and about 1 cm left parasternally by dissecting the skin here. The below located M. pectoralis was moved to the sides without further injury to access the thorax wall. The intercostal muscles between two ribs were moved to the side without breaking the ribs. The thereby created intrathoracic access was widened by a surgical spreader inserted above the pericardium. The pericardium was opened surgically stump by using two anatomical forceps. The thymus, if present in the surgical field, was pushed to the side with a surgical swab to gain access to the aortic root. The heart was carefully moved out of the pericardium using a hook, and the left atrium was put to the side with a surgical swab. The LAD was then ligated with a 5.0 Prolene suture (Ethicon, see http://www.ethicon.com/healthcare-professionals/products/wound-closure/non-absorbable-sutures/prolene-polypropylene). The ligation was made close to the aortic root, and the suture was tightened until paleness of the coronary artery anterior wall was noted. After ligation, the thorax wall and then the skin were closed by a single button seam using a 4.0 Prolene suture (company: Ethicon).
As a control, sham operations were performed. For the sham control group, the procedure followed was exactly the same as described above, except that the 5.0 prolene suture was only loosely out around the LAD without tightening.
The operation is ended by extubation, and antagonizing the anesthesia by i.p. injection of Atipamezol (2.5 mg/kg body weight) and Flumazenil (0.5 mg/kg body weight). Mice were put onto a warming mate until waking up, and then were transferred back to animal cages. The time for the whole procedure above by expert staff was around 30 min.
One week after LAD ligation, echocardiography was performed in M-mode to confirm MI, i.e. the left ventricular end-diastolic (LVEDD) and systolic (LVESD) diameters were assessed to allow calculation of left ventricular (LV) fractional shortening (LVFS=[LVEDD_LVESDLVEDD]×100). Only mice with a large infarct (left ventricular ejection fraction (LVEF)<20%) were subsequently randomized into two groups, i.e. one group receiving normal chow (CHF, n=11) and a second group receiving chow supplemented with compound (0.1% of compound MyoMed-946, CHF+MyoMed-946, n=12). Sham operated animals received only normal chow (n=15). Nine weeks later, echocardiography was performed again.
The animals were sacrificed to collect tissues, in particular diaphragm tissue, for functional and molecular characterization. All experiments and procedures were approved by the local Animal Research Council, University of Leipzig, and the Landesbehörde Sachsen (TVV 36/15).

Test [2] deals with monocrotaline (MCT)-treated C57BL/6 mice. Put plainly: Pulmonary hypertension mouse model, test series 2. It is filed as in vivo. The conditions noted are these: MCT+compound (0.1 weight-% in chow) vs MCT, 8 weeks. Here is the method: The test series 2 were performed analogous to test series 1. Briefly, Three groups of mice were included in this study: 1) saline-treated mice (sham; n=10); 2) monocrotaline (MCT)-treated mice fed with normal chow (MCT; n=10); and 3) MCT-treated mice fed with MuRF1 inhibitor chow (MCT+compound; n=10 for each compound). 8 weeks old C57BL/6 mice were subcutaneously injected weekly with either MCT (600 mg/kg) or a matched volume of saline for 8 weeks. The MCT+compound group started receiving the inhibitor chow 1 week prior to the MCT injections, whereas the sham and MCT groups were fed an identical chow but without the addition of the selected compound. The compound concentration in the chow was 0.1 weight-%, resulting in a daily compound intake per mouse of about 3 mg. Body weight was recorded every week for each mouse. Mice were sacrificed after 8 weeks treatment. At sacrifice, examination and tissue analysis were performed as described in test series 1.

Test [3] deals with eIF2B4, AS3MT, ATPAF1, GHDC, BAX protein levels in diaphragm. Put plainly: Proteomic analysis (mass spectrometry) of diaphragm, MCT mice. It is filed as in vivo. The note with it: MCT + MyoMed-946/MCT, n=3 per group. Here is the method:
Proteins from frozen diaphragm samples in sham, MCT, and MCT+compound mice (n=3 per group) were powdered under liquid N2. Mass spectrometry was then performed at the DZHK mass spectrometry core facility at Bad Nauheim, as described in Konzer et al., Methods in molecular biology, 2013, 1005, 39-52. The relative ratios for MCT/sham and MCT+compound/MCT were determined, with only hits deemed to be differentially expressed and highly significant (P<0.01) further studied by Western blot.

Test [4] relates to Mrps5 (mitochondrial ribosomal protein 5). Put plainly: Proteomic analysis of diaphragm tissue, CHF mice. The conditions noted are these: CHF mice with vs without compound feeding, P=0.02. It is filed as in vivo, Mus musculus. How it is done:
To analyze the molecular mechanisms underlying the observed physiological changes and benefits of MyoMed-946-treated mice suffering from CHF, comparative quantitative proteomic analysis as well as Western blot analysis of diaphragm tissue from sham, CHF, and CHF+MyoMed-946-treated mice were performed.
Mass spectrometry-based proteomic analysis was performed at the DZHK Core Facility, Bad Nauheim, Germany. Obtained MS raw data were processed by MaxQuant (1.6.0.1) using the Andromeda search engine and the Uniprot database for Mus musculus (as of 20 Apr. 2017). At a false discovery rate of 1% (both peptide and protein levels), >2600 protein groups were identified. The reductive dimethylation protocol employed (see Boersema et al., Nat Protoc, 2009, 4, 484-494) yielded pairwise relative comparative quantitation (ratios) between proteins from CHF+MyoMed-946, CHF, and sham conditions, which were statistically queried for significant differences using standard statistical tests. Several proteins were identified to be statistically different (e.g. TNNT3, Timm9, Ccdc5, Adi1, Ptges3, and Ndufa3).

Setting [5] is: after 10 weeks of intervention, n = 12.
[6] abbreviates: after 10 weeks, echocardiography.

Regarding `Cc1cc(=O)oc2cc(OCc3ccc(C(=O)OCC(=O)NC(=O)NCc4ccco4)cc3)ccc12` [MyoMed-946, [2-(2-furylmethylcarbamoylamino)-2-oxo-ethyl] 4-[(4-methyl-2-oxo-chromen-7-yl)oxymethyl]benzoate], in test [1] (after 10 weeks of intervention, histology), the LV infarct size stood at 27.1 ± 2.9%. Moreover, in test [1] (setting [5]), the Heart-to-body weight is 7.52 ± 0.57 mg/g and the “Lung weight (wet/dry)” value was 4.47 ± 0.10. Besides, in test [1] (setting [6]), the LVEDD is on record as 5.9 ± 0.2 mm, the LVEF is reported as 21.1 ± 2.5 %, the LVESD came out at 5.3 ± 0.2 mm and the LVFS was 9.9 ± 1.2 %. Besides, in test [2], the right ventricle hypertrophy result is on record as “attenuated; also recorded: attenuate the development of right ventricle hypertrophy”. In addition, in test [3], the “Protein Ratio (log2), AS3MT” value is recorded as −0.31; the “Protein Ratio (log2), ATPAF1” value was −0.68; the “Protein Ratio (log2), BAX” value is listed as −0.73; the “Protein Ratio (log2), GHDC” value is −0.39. The “Protein Ratio (log2), eIF2B4” value in test [3] turned out to be 0.32. The “Mrps5 protein level (proteomics)” value in test [4] is “significantly up-regulated”.

For the origin of these results see US12331042B2, “Compounds suitable for the treatment and prophylaxis of muscle wasting and other conditions” (priority 2019, dated 2025).
